# Where a SMILES comes first, the peptide text is derived from it. [ ]: non-standard residue; d: D form. Trp(4-Cl)(βS-Me) = C[C@@H](c1c[nH]c2cccc(Cl)c12)[C@H](N)C(=O)O; Bip(4'-COOH) = N[C@@H](Cc1ccc(-c2ccc(C(=O)O)cc2)cc1)C(=O)O; 1Nal(3S-Me) = C[C@@H](c1cccc2ccccc12)[C@H](N)C(=O)O; Ala(pyrimidin-5-yl) = N[C@@H](Cc1cncnc1)C(=O)O; Phe(4-COOH) = N[C@@H](Cc1ccc(C(=O)O)cc1)C(=O)O; Trp(7-aza) = N[C@@H](Cc1c[nH]c2ncccc12)C(=O)O; h3Pal(5-CN) = N#Cc1cncc(CC[C@H](N)C(=O)O)c1; Pro(4R-NH2) = N[C@H]1CN[C@H](C(=O)O)C1; 1Nal = N[C@@H](Cc1cccc2ccccc12)C(=O)O; hTyr = N[C@@H](CCc1ccc(O)cc1)C(=O)O; dDab = NCC[C@@H](N)C(=O)O; dNMeA = CN[C@H](C)C(=O)O; Dap = NC[C@H](N)C(=O)O; Aib = CC(C)(N)C(=O)O
# Molecular target: T1, Recombinant human IL-1β (Homo sapiens, UniProt P01584)
# T1 construct: purchased BioLegend 579404
# T1 sequence (P01584 117-269): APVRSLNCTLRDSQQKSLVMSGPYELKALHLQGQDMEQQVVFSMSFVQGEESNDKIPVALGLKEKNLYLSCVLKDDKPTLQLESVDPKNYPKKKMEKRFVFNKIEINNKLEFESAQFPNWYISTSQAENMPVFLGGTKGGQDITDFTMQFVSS
# Test: IL-6 assay in MRC5 cells: inhibition of IL-1β induced IL-6 secretion (AlphaLISA)
# Type: cell-based
# Conditions: inhibition of IL-1β induced IL-6 secretion in MRC5 cells; IL-1β pre-incubated 1 hour with compound; read-out: MRC5 IC50
# Method: Procedure for IL-6 Assay in MRC5 Cells
# The inhibition of IL-1β induced IL-6 secretion was evaluated in MRC5 cells. Recombinant human IL-1β (BioLegend 579404) at 2×EC80 concentration was prepared in seeding medium, EMEM (ATCC 30-2003) with 0.025% BSA (Sigma A9576), 1× penicillin/streptomycin (Gibco 15070-063), 1×NEAA (Gibco 11140-050), 1× GlutaMax (Gibco 35050-061), and 1× sodium pyruvate (Gibco 11360-070). 20 μL of IL-1β was added to a 384-well collagen-coated plate (Corning 354664) and pre-incubated at ambient temperature for 1 hour with 200 nL of compound dispensed using an ECHO 555 liquid handler. Human lung fibroblast MRC5 cells (ATCC CCL-171) were added at a density of 3000 cells/20 μL per well. The cells were prepared by passaging three times in growth medium, EMEM (ATCC 30-2003) with 10% fetal bovine serum (Gibco 16140-071), 1× penicillin/streptomycin (Gibco 15070-063), 1×NEAA (Gibco 11140-050), 1× GlutaMax (Gibco 35050-061), and 1× sodium pyruvate (Gibco 11360-070) in collagen-coated T175 flasks (Greiner 661950) and harvested in seeding medium after 5 minutes of 0.25% trypsin-EDTA (Gibco 25200-056) digestion. The 384-well collagen-coated plate, containing a final volume of 40 μL, was incubated at 37° C., 5% CO2 overnight. 5 μL of the conditioned medium was transferred to a 384-well AlphaLISA plate (PerkinElmer 6005350) for detection of IL-6 using the human AlphaLISA IL-6 kit (PerkinElmer AL223F) as per the manufacturer's protocol. 20 μL of the acceptor bead/biotinylated antibody mix was added to the 384-well AlphaLISA plate and incubated for 1 hour at ambient temperature. The donor bead mix was protected from light and 25 μL was added to the plate and incubated for 30 minutes at ambient temperature. The AlphaLISA plate was read on an EnVision multimode plate reader (Perkin Elmer model 2104) using the AlphaScreen setting (laser exc at 680 nm and emis at 570 nm). Dose response curves and IC50 values were analyzed using a 4-parameter logistic equation in Spotfire software (Tibco, Palo Alto, CA).
row,IC50,SMILES
1,0.0688 nM,CC(C)C[C@@H]1NC(=O)[C@H](CCCCN)NC(=O)[C@H](Cc2ccc(-c3ccc(C(=O)O)cc3)cc2)NC(=O)CNC(=O)[C@@H](C)N(C)C(=O)[C@H](CC(=O)O)NC(=O)[C@H]([C@@H](C)c2cccc3ccccc23)NC(=O)[C@@H]2C[C@@H](N)CN2C(=O)CNC(=O)[C@H](Cc2ccc(C(=O)O)cc2)NC(=O)[C@H](Cc2c[nH]c3ccccc23)NC(=O)[C@H](Cc2ccc(-c3ccc(C(=O)O)cc3)cc2)NC(=O)[C@H](CCc2ccc(O)cc2)NC(=O)[C@@H](CO)NC1=O [Example 26] (cyclo([Bip(4'-COOH)]W[Phe(4-COOH)]G[Pro(4R-NH2)][1Nal(3S-Me)]D[dNMeA]G[Bip(4'-COOH)]KL[dS][hTyr]))
2,0.017 nM,C[C@@H]1C(=O)NCC(=O)N[C@@H](Cc2ccc(-c3ccc(C(=O)O)cc3)cc2)C(=O)N[C@@H](Cc2cncnc2)C(=O)N[C@@H](CN)C(=O)N[C@H](C)C(=O)N[C@@H](CCc2cncc(C#N)c2)C(=O)N[C@@H](Cc2ccc(-c3ccc(C(=O)O)cc3)cc2)C(=O)N[C@@H](Cc2c[nH]c3ccccc23)C(=O)N[C@@H](Cc2ccc(C(=O)O)cc2)C(=O)NCC(=O)N2C[C@H](N)C[C@H]2C(=O)N[C@@H]([C@@H](C)c2cccc3ccccc23)C(=O)N[C@@H](CC(=O)O)C(=O)N1C [Example 27] (cyclo([Bip(4'-COOH)]W[Phe(4-COOH)]G[Pro(4R-NH2)][1Nal(3S-Me)]D[dNMeA]G[Bip(4'-COOH)][Ala(pyrimidin-5-yl)][Dap][dA][h3Pal(5-CN)]))
3,0.0755 nM,C[C@@H]1C(=O)NCC(=O)N[C@@H](Cc2ccc(-c3ccc(C(=O)O)cc3)cc2)C(=O)N[C@@H](Cc2cccc3ccccc23)C(=O)N[C@@H](CN)C(=O)NC(C)(C)C(=O)N[C@@H](CCc2cncc(C#N)c2)C(=O)N[C@@H](Cc2ccc(-c3ccc(C(=O)O)cc3)cc2)C(=O)N[C@@H](Cc2c[nH]c3ccccc23)C(=O)N[C@@H](Cc2ccc(C(=O)O)cc2)C(=O)NCC(=O)N2C[C@H](N)C[C@H]2C(=O)N[C@@H]([C@@H](C)c2c[nH]c3cccc(Cl)c23)C(=O)N[C@@H](CC(=O)O)C(=O)N1C [Example 34] (cyclo([Bip(4'-COOH)]W[Phe(4-COOH)]G[Pro(4R-NH2)][Trp(4-Cl)(βS-Me)]D[dNMeA]G[Bip(4'-COOH)][1Nal][Dap][Aib][h3Pal(5-CN)]))
4,0.16 nM,CC(C)C[C@@H]1NC(=O)[C@H](Cc2cccc3ccccc23)NC(=O)[C@H](Cc2ccc(-c3ccc(C(=O)O)cc3)cc2)NC(=O)CNC(=O)[C@@H](C)N(C)C(=O)[C@H](CC(=O)O)NC(=O)[C@H]([C@@H](C)c2c[nH]c3cccc(Cl)c23)NC(=O)[C@@H]2C[C@@H](N)CN2C(=O)CNC(=O)[C@H](Cc2ccc(C(=O)O)cc2)NC(=O)[C@H](Cc2c[nH]c3ccccc23)NC(=O)[C@H](Cc2ccc(-c3ccc(C(=O)O)cc3)cc2)NC(=O)CNC(=O)C(C)(C)NC1=O [Example 35] (cyclo([Bip(4'-COOH)]W[Phe(4-COOH)]G[Pro(4R-NH2)][Trp(4-Cl)(βS-Me)]D[dNMeA]G[Bip(4'-COOH)][1Nal]L[Aib]G))

# The remaining lines, values behind:
row,SMILES,IC50
1,CC(C)C[C@@H]1NC(=O)[C@H](CCCCN)NC(=O)[C@H](Cc2ccc(-c3ccc(C(=O)O)cc3)cc2)NC(=O)CNC(=O)[C@@H](C)N(C)C(=O)[C@H](CC(=O)O)NC(=O)[C@H]([C@@H](C)c2cccc3ccccc23)NC(=O)[C@@H]2C[C@@H](N)CN2C(=O)CNC(=O)[C@H](Cc2ccc(C(=O)O)cc2)NC(=O)[C@H](Cc2c[nH]c3ccccc23)NC(=O)[C@H](Cc2ccc(-c3ccc(C(=O)O)cc3)cc2)NC(=O)[C@H](CCc2ccc(O)cc2)NC(=O)[C@@H](C)NC1=O [Example 25] (cyclo([Bip(4'-COOH)]W[Phe(4-COOH)]G[Pro(4R-NH2)][1Nal(3S-Me)]D[dNMeA]G[Bip(4'-COOH)]KL[dA][hTyr])),0.0542 nM
2,C[C@@H]1C(=O)NCC(=O)N[C@@H](Cc2ccc(-c3ccc(C(=O)O)cc3)cc2)C(=O)N[C@@H](Cc2cncnc2)C(=O)N[C@@H](CN)C(=O)N[C@H](C)C(=O)N[C@@H](CCc2ccc(O)cc2)C(=O)N[C@@H](Cc2ccc(-c3ccc(C(=O)O)cc3)cc2)C(=O)N[C@@H](Cc2c[nH]c3ccccc23)C(=O)N[C@@H](Cc2ccc(C(=O)O)cc2)C(=O)NCC(=O)N2C[C@H](N)C[C@H]2C(=O)N[C@@H]([C@@H](C)c2cccc3ccccc23)C(=O)N[C@@H](CC(=O)O)C(=O)N1C [Example 28] (cyclo([Bip(4'-COOH)]W[Phe(4-COOH)]G[Pro(4R-NH2)][1Nal(3S-Me)]D[dNMeA]G[Bip(4'-COOH)][Ala(pyrimidin-5-yl)][Dap][dA][hTyr])),0.0393 nM
3,C[C@@H]1C(=O)NCC(=O)N[C@@H](Cc2ccc(-c3ccc(C(=O)O)cc3)cc2)C(=O)N[C@@H](Cc2c[nH]c3ncccc23)C(=O)N[C@@H](CN)C(=O)N[C@H](C)C(=O)N[C@@H](CCc2ccc(O)cc2)C(=O)N[C@@H](Cc2ccc(-c3ccc(C(=O)O)cc3)cc2)C(=O)N[C@@H](Cc2c[nH]c3ccccc23)C(=O)N[C@@H](Cc2ccc(C(=O)O)cc2)C(=O)NCC(=O)N2C[C@H](N)C[C@H]2C(=O)N[C@@H]([C@@H](C)c2cccc3ccccc23)C(=O)N[C@@H](CC(=O)O)C(=O)N1C [Example 29] (cyclo([Bip(4'-COOH)]W[Phe(4-COOH)]G[Pro(4R-NH2)][1Nal(3S-Me)]D[dNMeA]G[Bip(4'-COOH)][Trp(7-aza)][Dap][dA][hTyr])),0.0205 nM
4,C[C@@H]1C(=O)NCC(=O)N[C@@H](Cc2ccc(-c3ccc(C(=O)O)cc3)cc2)C(=O)N[C@@H](Cc2c[nH]c3ccccc23)C(=O)N[C@@H](CN)C(=O)N[C@H](C)C(=O)N[C@@H](CCc2cncc(C#N)c2)C(=O)N[C@@H](Cc2ccc(-c3ccc(C(=O)O)cc3)cc2)C(=O)N[C@@H](Cc2c[nH]c3ccccc23)C(=O)N[C@@H](Cc2ccc(C(=O)O)cc2)C(=O)NCC(=O)N2C[C@H](N)C[C@H]2C(=O)N[C@@H]([C@@H](C)c2cccc3ccccc23)C(=O)N[C@@H](CC(=O)O)C(=O)N1C [Example 30] (cyclo([Bip(4'-COOH)]W[Phe(4-COOH)]G[Pro(4R-NH2)][1Nal(3S-Me)]D[dNMeA]G[Bip(4'-COOH)]W[Dap][dA][h3Pal(5-CN)])),0.0185 nM
5,C[C@@H]1C(=O)NCC(=O)N[C@@H](Cc2ccc(-c3ccc(C(=O)O)cc3)cc2)C(=O)N[C@@H](Cc2c[nH]c3ccccc23)C(=O)N[C@@H](CN)C(=O)N[C@H](C)C(=O)N[C@@H](CCc2ccc(O)cc2)C(=O)N[C@@H](Cc2ccc(-c3ccc(C(=O)O)cc3)cc2)C(=O)N[C@@H](Cc2c[nH]c3ccccc23)C(=O)N[C@@H](Cc2ccc(C(=O)O)cc2)C(=O)NCC(=O)N2C[C@H](N)C[C@H]2C(=O)N[C@@H]([C@@H](C)c2cccc3ccccc23)C(=O)N[C@@H](CC(=O)O)C(=O)N1C [Example 31] (cyclo([Bip(4'-COOH)]W[Phe(4-COOH)]G[Pro(4R-NH2)][1Nal(3S-Me)]D[dNMeA]G[Bip(4'-COOH)]W[Dap][dA][hTyr])),0.0208 nM
6,C[C@@H]1C(=O)NCC(=O)N[C@@H](Cc2ccc(-c3ccc(C(=O)O)cc3)cc2)C(=O)N[C@@H](Cc2c[nH]c3ccccc23)C(=O)NCC(=O)N[C@H](CCN)C(=O)N[C@@H](CCc2ccc(O)cc2)C(=O)N[C@@H](Cc2ccc(-c3ccc(C(=O)O)cc3)cc2)C(=O)N[C@@H](Cc2c[nH]c3ccccc23)C(=O)N[C@@H](Cc2ccc(C(=O)O)cc2)C(=O)NCC(=O)N2C[C@H](N)C[C@H]2C(=O)N[C@@H]([C@@H](C)c2cccc3ccccc23)C(=O)N[C@@H](CC(=O)O)C(=O)N1C [Example 32] (cyclo([Bip(4'-COOH)]W[Phe(4-COOH)]G[Pro(4R-NH2)][1Nal(3S-Me)]D[dNMeA]G[Bip(4'-COOH)]WG[dDab][hTyr])),0.033 nM
7,CC(C)C[C@@H]1NC(=O)[C@H](Cc2cccc3ccccc23)NC(=O)[C@H](Cc2ccc(-c3ccc(C(=O)O)cc3)cc2)NC(=O)CNC(=O)[C@@H](C)N(C)C(=O)[C@H](C)NC(=O)[C@H]([C@@H](C)c2c[nH]c3cccc(Cl)c23)NC(=O)[C@@H]2C[C@@H](N)CN2C(=O)CNC(=O)[C@H](Cc2ccc(C(=O)O)cc2)NC(=O)[C@H](Cc2c[nH]c3ccccc23)NC(=O)[C@H](Cc2ccc(-c3ccc(C(=O)O)cc3)cc2)NC(=O)CNC(=O)C(C)(C)NC1=O [Example 33] (cyclo([Bip(4'-COOH)]W[Phe(4-COOH)]G[Pro(4R-NH2)][Trp(4-Cl)(βS-Me)]A[dNMeA]G[Bip(4'-COOH)][1Nal]L[Aib]G)),0.544 nM
